Laboratory results taken from patent US20030044413A1, “Methods of limiting apoptosis of cells” (Regents of the University of Minnesota, priority 1998, published 2003).
“Also recorded” adds a separate entry of the source.

Assays:
rat primary hepatocytes = test: Apoptosis in isolated rat hepatocytes with DCA, TGF-β1 or okadaic acid ± UDCA (Example III); format: cell-based; settings: for percentage of apoptotic cells: 50 μM deoxycholic acid 4 hours, 1 nM TGF-β1 24 hours, 25 nM okadaic acid 16 hours
From the text: Cell culture and preparation of rat primary hepatocytes. Rat primary hepatocytes were isolated from male Sprague-Dawley rats (200-250 g) by collagenase perfusion as described by Mariasb, et al., J. Biol. Chem. 261, 9583-9586 (1986). Briefly, rats were anesthesized with phenobarbitol and the livers were perfused with 0.05% collagenase. Hepatocyte suspensions were obtained by passing digested livers through 0.125 mm gauze and washing cells in modified Eagle's medium (MEM) (Life Technologies, Inc., Grand Island, N.Y.). Cell viability was determined by trypan blue exclusion and was typically 85 to 90%. After isolation, hepatocytes were resuspended in William's E medium (Life Technologies, Inc.) supplemented with 26 mM sodium bicarbonate, 23 mM HEPES, 0.01 U/mL insulin, 2 mM L-glutamine, 10 nM dexamethasone, 5.5 mM glucose, 100 U/ml penicillin and 100 U/ml streptomycin and then plated on 35×10 mm […] tissue culture dishes (Becton Dickinson Labware, Lincoln Park, N.J.) at 1.0×10^6 cells/ml. The cells were maintained at 37° C. in a humidified atmosphere of 5% CO2 for 3 h. Plates were then washed with medium to remove dead cells, and medium containing 10% heat-inactivated FBS (55° C. for 30 min) was added (Atlanta Biologicals, Inc., Norcross, Ga.).
Incubation of cells with inducers of apoptosis. Freshly isolated rat hepatocytes were cultured for 3 h as described above and then incubated with William's E medium supplemented with either 50 μM DCA for 4 h, 1 nM TGF-β1 for 24 h, or 25 nM okadaic acid for 16 h, in the presence or absence of 100 μM UDCA, or no addition (control). The medium was gently removed at the indicated time points and scored for nonviable cells by trypan blue dye exclusion. The attached cells were fixed for morphologic assessment of apoptotic changes. Morphological evaluation of apoptosis. The medium was gently removed at the indicated time points to prevent detachment of cells. Cells were fixed with 4% formaldehyde in PBS, pH 7.4, for 10 min at room temperature, incubated with Hoechst dye 33258 (Sigma Chemical Co., St. Louis, Mo.) at […] in PBS for 5 min, washed with PBS and mounted with PBS:glycerol (3:1, v/v). Fluorescence was visualized with a Zeiss standard fluorescence microscope (Carl Zeiss, Inc., Thornwood, N.Y.). Photographs were taken with Kodak Ektar-1000 film (Eastman Kodak Co.). Stained nuclei were scored by blind analysis and categorized according to the condensation and staining characteristics of chromatin. Normal nuclei were identified as noncondensed chromatin dispersed over the entire nucleus. […] Three fields per dish of approximately 500 nuclei were counted; mean values are expressed as the percent of apoptotic nuclei.

[1] = test system: isolated rat liver mitochondria; test: FACS analysis of ΔΨm and ROS in isolated mitochondria
Procedure: Measurement of ΔΨm and ROS Production by FACS Analysis. ΔΨm and ROS production were measured by FACScan (Becton Dickinson, San Jose, Calif.) analysis. Freshly isolated rat mitochondria were resuspended in respiration buffer (50-100 μg/ml) and then incubated for 15 min at 37° C. with 50 nM 3,3′-dihexyloxacarbocyanine iodide [DiOC6(3)],2 μM dihydroethidium (HE), or 5 μM 2′,7′-dichlorofluorescin diacetate (H2DCFDA; Molecular Probes Inc.) (Cathcart et al., Anal. Biochem., 134, 111-116 (1983); Carter et al., J. Leukoycte Biol, 55, 253-258 (1994); Zamzami et al., J. Exp. Med., 181 1661-1672 (1995)). Mitochondria were then treated with DCA (100 μM) or PhAsO (80 μM) for 5 min and analyzed by cytofluorometry. For the coincubation studies, mitochondria were preincubated with UDCA (500 μM) or HDCA (500 μM) prior to the addition of either DCA or PhAsO.

[2] = 100 μM DCA alone or 500 μM UDCA alone

C[C@H](CCC(=O)O)[C@H]1CC[C@H]2[C@@H]3[C@@H](O)C[C@@H]4C[C@H](O)CC[C@]4(C)[C@H]3CC[C@]12C [UDCA, ursodeoxycholic acid]
inhibition at 100 µM (rat primary hepatocytes; Rattus norvegicus, Hepatocyte, 100 μM UDCA with each of the apoptosis-inducing agents): > 80% | reduction of ROS production of peroxides ([1]; 80 μM PhAsO + 500 μM UDCA): 55% | reduction of ROS production of superoxide anions ([1]; 80 μM PhAsO + 500 μM UDCA): 100% | reduction of ΔΨm disruption ([1]; 80 μM PhAsO + 500 μM UDCA versus PhAsO alone): approximately 65% | other ROS (peroxides, H2DCFDA) ([1]; 100 μM DCA + 500 μM UDCA): 14.7±1.4% | percentage of low ΔΨm ([1]; 100 μM DCA + 500 μM UDCA): 10.3±0.7% | superoxide anion production ([1]; 100 μM DCA + 500 μM UDCA): 15.9±1.5% | superoxide anion production [1, 2]: 11.8±2.8%

TGF-β1: transforming growth factor β1, nonmembrane damaging inducer of apoptosis
percentage of apoptotic cells (rat primary hepatocytes): 30%

C[C@H](CCC(=O)O)[C@H]1CC[C@H]2[C@@H]3C[C@H](O)[C@@H]4C[C@H](O)CC[C@]4(C)[C@H]3CC[C@]12C [hyodeoxycholic acid]
effect on DCA-mediated changes in ΔΨm and ROS production ([1]; 100 μM DCA, 500 μM bile acid pretreatment, listed as HDCA): did not prevent DCA-mediated changes; also recorded: does not significantly inhibit | ΔΨm and ROS with HDCA alone ([1]; 500 μM HDCA alone): no changes were observed

C=C1[C@@H](O)[C@@H]2O[C@]3(CC[C@H](/C=C/[C@@H](C)[C@@H]4CC(C)=C[C@@]5(O[C@H](C[C@@](C)(O)C(=O)O)CC[C@H]5O)O4)O3)CC[C@H]2O[C@@H]1[C@@H](O)C[C@H](C)[C@H]1O[C@@]2(CCCCO2)CC[C@H]1C [okadaic acid]
percentage of apoptotic cells (rat primary hepatocytes): 75%

C[C@H](CCC(=O)O)[C@H]1CC[C@H]2[C@@H]3CC[C@@H]4C[C@H](O)CC[C@]4(C)[C@H]3C[C@H](O)[C@]12C [DCA, deoxycholic acid]
percentage of apoptotic cells (rat primary hepatocytes): 7% | other ROS (peroxides, H2DCFDA) ([1]; 100 μM DCA alone): 21.7±3.5% | superoxide anion production [1, 2]: 20.7±2.4% | percentage of low ΔΨm ([1]; 100 μM DCA alone, 5 min): 16.0±1.8%
